Data published in US6638949B1, “Prevention of adhesions and excessive scar formation using angiogenesis inhibitors” (priority 1997, dated 2003).

What was measured:
Type in all cases: in vivo, mice
[1] = system: full thickness wounds; assay: Wound closure / contraction of full thickness wounds
Excerpt: FIG. 2 is a graph of percent wounds open over time (days after wounding) for mice treated with TNP-470 for different dosage regimes: pretreatment days −60 to day 0; treated with TNP-470 days 5 to 18; treated with TNP-470 days 0 to 18; and treated with TNP-470 days 0, 2 and 4. Full thickness mouse wounds were made in adult mice, the majority of whom were six to eight weeks old and some of whom were fourteen to sixteen weeks old. Mice were pretreated for sixty days with TNP-470, then wounds were made, and healing monitored. Mice were treated with 30 mg/kg TNP-470 administered subcutaneously every other day. Mice were treated essentially the same as described in Example 1. Histological analysis of the wounds in the control and treated mice compared contraction of full thickness wounds in mice treated with systemic TNP-470 (AGM 1470), every other day after the wound is made, with untreated mice. Treatment with TNP-470 every other day after the wound is made (at a dose identical to that which results in maximal tumor inhibition) causes a 5-day delay in the complete contraction of the wound.

[2] = system: linear wounds; assay: Breaking strength (tensile strength) of linear wounds; conditions: for inhibition of breaking strength: systemic, FIG. 3, n=280 mice, statistically significant
Protocol: FIG. 3 is a graph of breaking strength (tensile strength) of linear wounds after systemic administration of TNP-470 days −20 to 0; days 0 to 4; days 0 to 12; days 5 to 12; and control, measured on days 4, 7 and 12 after wounding. Mice were treated essentially the same as described in Example 1. FIG. 3 (n=280 mice)graphs breaking strength of linear wounds after systemic administration of TNP-470. Breaking strength was inhibited 36% on post wound day 7 and 43% on post wound day 12. This was statistically significant. The wounds were inhibited if TNP-470 was given on post wound days 0, 2, 4 or post wound days 0, 2, 4, 6, 8, and 10.

[3] = system: basic fibroblast growth factor (bFGF); assay: Endogenous basic fibroblast growth factor (bFGF) in the wound; conditions: day 10 after wound; average; p≦0.05
Protocol: FIG. 1 is a graph of endogenous basic fibroblast growth factor (bFGF)(pg/cm2) over time (days after wounding) of mice treated with TNP-470 (solid circles) and controls that were not treated (open circles). Full thickness mouse wounds were made in adult mice, the majority of whom were six to eight weeks old and some of whom were fourteen to sixteen weeks old. Mice were pretreated for sixty days with TNP-470, then wounds were made, and healing monitored. Mice were treated with 30 mg/kg TNP-470 administered subcutaneously every other day. Mice were treated essentially the same as described in Example 1.

[4] = system: full thickness mouse wounds; assay: Histology of full thickness mouse wounds (hematoxylin and eosin) after TNP-470 treatment
Protocol: Full thickness mouse wounds were made in adult mice, the majority of whom were six to eight weeks old and some of whom were fourteen to sixteen weeks old. Mice were pretreated for sixty days with TNP-470, then wounds were made, and healing monitored. Mice were treated with 30 mg/kg TNP-470 administered subcutaneously every other day. Histological micrographs of open mouse wounds harvested at 7, 12, and 17 days post excision were made. The biopsies were fixed, embedded, sectioned and stained with hematoxylin and eosin.

[5] = given on post wound days 0, 2, 4, or post wound days 0, 2, 4, 6, 8, and 10
[6] = 17 days post excision, vs untreated

## CO[C@@H]1[C@H](OC(=O)NC(=O)CCl)CC[C@]2(CO2)[C@H]1[C@@]1(C)O[C@@H]1CC=C(C)C [TNP-470, 0-chloroacetylcarbamoyl-Fumagillol]
[1]; FIG. 2, n=440 mice, statistically significant
  wound healing slowed, time to full contraction: 5 days
[1]; [5]
  wound healing: remained inhibited
[1]; systemic, every other day after the wound is made, dose of maximal tumor inhibition
  delay in the complete contraction of the wound: 5 days
[2]; [5]
  breaking strength of wounds: inhibited
[2]; post wound day 7
  inhibition of breaking strength: 36%
[2]; post wound day 12
  inhibition of breaking strength: 43%
[3]
  reduction of bFGF concentration in wound: 37%
[4]; 7 days post excision, 30 mg/kg s.c. every other day, vs untreated
  blood vessels in healing wound granulation tissue: relatively lower density of blood vessels
[4]; 12 days post excision, wound not completely closed, vs untreated
  blood vessels in granulation tissue under re-epithelialized surface: fewer vessels with smaller diameters
[4]; [6]
  blood vessels in mature granulation tissue of healed wound: reduction in the number of vessels
  density of mesenchymal cells in granulation tissue: continued higher density of mesenchymal cells
[4]; overall, 7, 12 and 17 days
  scar formation (histologic findings): severely retarded scar formation
